Tested on: 439559-082-T-J2-PDC complex spheroid growth
Experiment: Anticancer human tumor 439559-082-T-J2-PDC patient-derived colon adenocarcinoma cell line growth inhibition [Asc]
Settings: for IC50: curve of first compound; for viability, T/C: stronger effect = lower value; active means viability on the fitted dose curve at most 10% of control; inactive means the rest
In short: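 Tumor cells were grown as complex spheroids with human endothelial cells (HUVEC) and human mesenchymal stem cells as stroma. Agents were tested alone and in combination, in half-log steps down from the clinical Cmax, or from 10 microM where Cmax was unknown.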

[1] = second compound 0.03 µM, first compound 0.0316 µM
[2] = second compound 0.03 µM, first compound 0.1 µM
[3] = second compound 0.03 µM, first compound 0.316 µM
[4] = second compound 0.03 µM, first compound 1 µM
[5] = second compound 0.0949 µM, first compound 0.0316 µM
[6] = second compound 0.0949 µM, first compound 0.1 µM
[7] = second compound 0.0949 µM, first compound 0.316 µM
[8] = second compound 0.0949 µM, first compound 1 µM
[9] = second compound 0.3 µM, first compound 0.0316 µM
[10] = second compound 0.3 µM, first compound 0.1 µM
[11] = second compound 0.3 µM, first compound 0.316 µM
[12] = second compound 0.3 µM, first compound 1 µM
[13] = second compound 0.949 µM, first compound 0.0316 µM
[14] = second compound 0.949 µM, first compound 0.1 µM
[15] = second compound 0.949 µM, first compound 0.316 µM
[16] = second compound 0.949 µM, first compound 1 µM
[17] = second compound 3 µM, first compound 0.0316 µM
[18] = second compound 3 µM, first compound 0.1 µM
[19] = second compound 3 µM, first compound 0.316 µM
[20] = second compound 3 µM, first compound 1 µM
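Further: spheroids exposed to agents for 7 days starting day 3 after seeding.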
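Wherever viability, T/C is given: percent of DMSO vehicle control viability with 100% = vehicle.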

CCN1CCN(Cc2ccc(Nc3ncc(F)c(-c4cc(F)c5nc(C)n(C(C)C)c5c4)n3)nc2)CC1 + CCN1C(C(=O)NC23CCC(C(=O)O)(CC2)CC3)C(c2cccc(Cl)c2F)C2(C(=O)Nc3cc(Cl)ccc32)C12CCCCC2
inactive: viability, T/C (second compound 0.03 µM, first compound 0.00316 µM) 107% | viability, T/C (second compound 0.03 µM, first compound 0.01 µM) 105% | viability, T/C [1] 94.4% | viability, T/C [2] 88.9% | viability, T/C [3] 85.7% | viability, T/C [4] 83% | viability, T/C (second compound 0.0949 µM, first compound 0.00316 µM) 104% | viability, T/C (second compound 0.0949 µM, first compound 0.01 µM) 107% | viability, T/C [5] 98.8% | viability, T/C [6] 80.7% | viability, T/C [7] 94% | viability, T/C [8] 84.8% | viability, T/C (second compound 0.3 µM, first compound 0.00316 µM) 99.1% | viability, T/C (second compound 0.3 µM, first compound 0.01 µM) 106% | viability, T/C [9] 115% | viability, T/C [10] 87.2% | viability, T/C [11] 86.8% | viability, T/C [12] 85% | viability, T/C (second compound 0.949 µM, first compound 0.00316 µM) 99.2% | viability, T/C (second compound 0.949 µM, first compound 0.01 µM) 102% | viability, T/C [13] 114% | viability, T/C [14] 93.5% | viability, T/C [15] 96.7% | viability, T/C [16] 90% | viability, T/C (second compound 3 µM, first compound 0.00316 µM) 87.5% | viability, T/C (second compound 3 µM, first compound 0.01 µM) 94% | viability, T/C [17] 105% | viability, T/C [18] 80.7% | viability, T/C [19] 87% | viability, T/C [20] 84.7%
> 1000 nM: IC50 (second compound 0.03 µM) | IC50 (second compound 0.0949 µM) | IC50 (second compound 0.3 µM) | IC50 (second compound 0.949 µM) | IC50 (second compound 3 µM)

O=C(c1cc(Cc2n[nH]c(=O)c3ccccc23)ccc1F)N1CCN(C(=O)C2CC2)CC1 + CCN1C(C(=O)NC23CCC(C(=O)O)(CC2)CC3)C(c2cccc(Cl)c2F)C2(C(=O)Nc3cc(Cl)ccc32)C12CCCCC2
> 10000 nM: IC50 (second compound 0.03 µM) | IC50 (second compound 0.0949 µM) | IC50 (second compound 0.3 µM) | IC50 (second compound 0.949 µM) | IC50 (second compound 3 µM)
inactive: viability, T/C [1] 106% | viability, T/C [2] 103% | viability, T/C [3] 105% | viability, T/C [4] 87.5% | viability, T/C (second compound 0.03 µM, first compound 3.16 µM) 97.1% | viability, T/C (second compound 0.03 µM, first compound 10 µM) 87.8% | viability, T/C [5] 104% | viability, T/C [6] 113% | viability, T/C [7] 104% | viability, T/C [8] 96.5% | viability, T/C (second compound 0.0949 µM, first compound 3.16 µM) 93.4% | viability, T/C (second compound 0.0949 µM, first compound 10 µM) 100% | viability, T/C [9] 99.5% | viability, T/C [10] 112% | viability, T/C [11] 111% | viability, T/C [12] 85% | viability, T/C (second compound 0.3 µM, first compound 3.16 µM) 91% | viability, T/C (second compound 0.3 µM, first compound 10 µM) 94.9% | viability, T/C [13] 109% | viability, T/C [14] 107% | viability, T/C [15] 113% | viability, T/C [16] 89.6% | viability, T/C (second compound 0.949 µM, first compound 3.16 µM) 90.4% | viability, T/C (second compound 0.949 µM, first compound 10 µM) 94.9% | viability, T/C [17] 90.5% | viability, T/C [18] 100% | viability, T/C [19] 104% | viability, T/C [20] 86.7% | viability, T/C (second compound 3 µM, first compound 3.16 µM) 88.6% | viability, T/C (second compound 3 µM, first compound 10 µM) 88.8%

NC1CCC(NC2CC2c2ccccc2)CC1 (configuration not stated) + CNC(C)C(=O)NC1CN(S(=O)(=O)c2cccc(S(=O)(=O)N3CCC4CCC(C(=O)NC(c5ccccc5)c5ccccc5)N4C(=O)C(NC(=O)C(C)NC)C3)c2)CCC2CCC(C(=O)NC(c3ccccc3)c3ccccc3)N2C1=O
inactive: viability, T/C (second compound 0.00316 µM, first compound 0.000316 µM) 104% | viability, T/C (second compound 0.00316 µM, first compound 0.001 µM) 100% | viability, T/C (second compound 0.00316 µM, first compound 0.00316 µM) 110% | viability, T/C (second compound 0.00316 µM, first compound 0.01 µM) 95.7% | viability, T/C (second compound 0.00316 µM, first compound 0.0316 µM) 98.4% | viability, T/C (second compound 0.00316 µM, first compound 0.1 µM) 98.2% | viability, T/C (second compound 0.01 µM, first compound 0.000316 µM) 102% | viability, T/C (second compound 0.01 µM, first compound 0.001 µM) 95% | viability, T/C (second compound 0.01 µM, first compound 0.00316 µM) 109% | viability, T/C (second compound 0.01 µM, first compound 0.01 µM) 111% | viability, T/C (second compound 0.01 µM, first compound 0.0316 µM) 99.5% | viability, T/C (second compound 0.01 µM, first compound 0.1 µM) 107% | viability, T/C (second compound 0.0316 µM, first compound 0.000316 µM) 107% | viability, T/C (second compound 0.0316 µM, first compound 0.001 µM) 91.3% | viability, T/C (second compound 0.0316 µM, first compound 0.00316 µM) 101% | viability, T/C (second compound 0.0316 µM, first compound 0.01 µM) 109% | viability, T/C (second compound 0.0316 µM, first compound 0.0316 µM) 104% | viability, T/C (second compound 0.0316 µM, first compound 0.1 µM) 107% | viability, T/C (second compound 0.1 µM, first compound 0.000316 µM) 105% | viability, T/C (second compound 0.1 µM, first compound 0.001 µM) 101% | viability, T/C (second compound 0.1 µM, first compound 0.00316 µM) 98.1% | viability, T/C (second compound 0.1 µM, first compound 0.01 µM) 104% | viability, T/C (second compound 0.1 µM, first compound 0.0316 µM) 96.4% | viability, T/C (second compound 0.1 µM, first compound 0.1 µM) 98% | viability, T/C (second compound 0.316 µM, first compound 0.000316 µM) 95.9% | viability, T/C (second compound 0.316 µM, first compound 0.001 µM) 101% | viability, T/C (second compound 0.316 µM, first compound 0.00316 µM) 93.6% | viability, T/C (second compound 0.316 µM, first compound 0.01 µM) 100% | viability, T/C (second compound 0.316 µM, first compound 0.0316 µM) 101% | viability, T/C (second compound 0.316 µM, first compound 0.1 µM) 97% | viability, T/C (second compound 1 µM, first compound 0.000316 µM) 85.5% | viability, T/C (second compound 1 µM, first compound 0.001 µM) 85.9% | viability, T/C (second compound 1 µM, first compound 0.00316 µM) 87.4% | viability, T/C (second compound 1 µM, first compound 0.01 µM) 84.5% | viability, T/C (second compound 1 µM, first compound 0.0316 µM) 86.3% | viability, T/C (second compound 1 µM, first compound 0.1 µM) 77.3%
> 100 nM: IC50 (second compound 0.00316 µM) | IC50 (second compound 0.01 µM) | IC50 (second compound 0.0316 µM) | IC50 (second compound 0.1 µM) | IC50 (second compound 0.316 µM) | IC50 (second compound 1 µM)

Reference: PubChem BioAssay AID1963423 (Molecular Pharmacology Branch, DTP, NCI, 2024)
